Results as given in paper PMC3471066, “The Inhibitory Effect of Prunella vulgaris L. on Aldose Reductase and Protein Glycation” (Journal of Biomedicine and Biotechnology, 2012).
Where two headings read alike, the source gives them in different places. Blank lines part the entries; values can stand above or below the molecule they belong to.

Legend:
[1] = Effects on AGEs formation (BSA-methylglyoxal, fluorescence); format: biochemical
Method: The modified procedure of Lee et al. was followed. Bovine serum albumin (10 mg/mL) was incubated with 5 mM methylglyoxal in sodium phosphate buffer (100 mM; pH 7.4). […] All of the reagent and samples were sterilized by filtration through 0.2 μM membrane filters, and the mixture was incubated at 37°C for 7 days. The fluorescence intensity was measured at an excitation wavelength of 330 nm and an emission wavelength of 410 nm with a LS50B fluorescence spectrometer (Perkin-Elmer Ltd., USA). Aminoguanidine was also tested as a known inhibitor.

ABTS•+ assay = assay: ABTS•+ assay
Method: The method of Re et al. was used with slight modification. The ABTS diammonium salt (2 mM) and potassium persulfate (3.5 mM) were mixed and diluted in distilled water kept in the dark at room temperature for 24 h before use. After addition of ABTS^•+ solution to 10 μL of antioxidant compounds were recorded at after 10 min reaction. The percentage inhibition of absorbance at 750 nm is calculated and potted as a function of concentration of antioxidants. Trolox was used as positive control.

[2] = molecular target: T1, rat lens aldose reductase (rAR) (Rattus norvegicus, UniProt P07943); assay: Rat lens aldose reductase (rAR) inhibition, NADPH decrease at 340 nm; format: biochemical
T1 construct: from tissue; host or cells: lens of Sprague-Dawley rats (homogenate supernatant)

[3] = molecular target: T2, human recombinant aldose reductase (rhAR) (Homo sapiens, UniProt P15121); assay: Human recombinant aldose reductase (rhAR) inhibition; format: biochemical
T2 construct: purchased Wako Pure Chemical Industries (Osaka, Japan)

[4] = molecular target: T2, human recombinant aldose reductase (rhAR); assay: Kinetics of rhAR inhibition, Lineweaver-Burk plots; format: biochemical; conditions: DL-glyceraldehyde 0.1-1 mM
Method: Reaction mixtures consisted of 0.1 M potassium phosphate, 0.16 mM NADPH, 2 mM of recombinant human aldose reductase (rhAR) with varied concentrations of substrate DL-glyceraldehyde and AR inhibitor in a total volume of 200 μL. Concentrations were ranged from 0.1 to 1 mM for DL-glyceraldehyde, and from 0.1 to 1 mM for active compound. Recombinant human aldose reductase activity was assayed spectrophotometrically by measuring the decrease in absorption of NADPH at 340 nm after substrate addition using Bio Tek Power Wave XS spectrophotometer (Bio Tek Instruments, VT, USA).

rat lenses = assay: Lens culture and intracellular galactitol measurement; format: cell-based; conditions: for Galactitol content in rat lens: 30 mM galactose, 5 μg/mL compound, 6 d; for inhibition at 5 µg/mL: Rattus norvegicus, 5 μg/mL, read-out: inhibition of galactitol accumulation in rat lenses
Method: Lenses isolated from 10-week-old male rats were cultured for 6 d in TC-199 medium that contained 15% fetal bovine serum 100 units/mL penicillin and 0.1 mg/mL streptomycin under sterile conditions in an atmosphere of 5% CO2 and 95% air at 37°C. Samples were dissolved in dimethyl sulfoxide. The lenses were divided into 5 groups and cultured in medium containing 5 mM glucose, 30 mM galactose, and rosmarinic acid or caffeic acid ethylene ester. Each lens was placed in well containing 1.0 mL of medium. Galactitol was determined by HPLC after its derivatization by reaction with benzoic acid to a fluorescent compound [20].

rat erythrocyte = assay: Blood culture (erythrocyte) and intracellular galactitol measurement; format: cell-based; conditions: for Rat erythrocyte galactitol content: 30 mM galactose, 5 μg/mL compound, 3 h; for inhibition at 5 µg/mL: Rattus norvegicus, Erythrocyte, 5 μg/mL, read-out: inhibition of galactitol accumulation in rat erythrocyte
Method: Blood sample was collected in heparin-containing polypropylene tube from 10-week-old male rats. For sugar and sugar alcohol analysis, erythrocytes from heparinized blood were separated from the plasma and buffy coat by centrifuging at 2000×g for 10 min. The cells were washed thrice with normal saline (0.9% NaCl) at 4°C. In the final washing, the cells were centrifuged at 2000 ×g for 10 min to obtain a consistently packed cell preparation. The packed cells (1 mL) were then incubated in a Krebs-Ringer bicarbonate buffer (pH 7.4) containing 30 mM galactose in the presence or absence of samples at 37°C in 5% CO2 for 3 h. The erythrocytes were washed with cold saline by centrifuging at 2000 ×g for 10 min, precipitated by adding 6% of cold perchloric acid (3 mL), and centrifuged again at 2000 ×g for 10 min. The supernatant was neutralized with 2.5 M K2CO3 at 4°C and used for galactitol determination. HPLC analysis for sugar and sugar alcohol in blood was performed with this supernatant of red blood cell homogenate after being benzoylated.

SMILES: N=C(N)NN [Aminoguanidine, reference compound]
- AGEs IC50 [1]: 143.92 ± 0.62 µg/mL
- IC50 [1]: 1945 ± 8.39 µM
- Inhibition (%) of AGEs ([1]; 19.61 μg/mL): 3.96 ± 0.06%
- Inhibition (%) of AGEs ([1]; 98.04 μg/mL): 37.39 ± 0.52%
- Inhibition (%) of AGEs ([1]; 196.08 μg/mL): 66.85 ± 0.13%

- IC50 (ABTS•+ assay): 12 ± 0.24 µM
SMILES: O=C(O)/C=C/c1ccc(O)c(O)c1 [Compound 1, caffeic acid]
- Inhibition (%) of AGEs ([1]; 19.61 μg/mL): 9.33 ± 0.27%
- Inhibition (%) of ABTS•+ (ABTS•+ assay; 0.33 μg/mL): 11.33 ± 0.31%
- Inhibition (%) of ABTS•+ (ABTS•+ assay; 1.67 μg/mL): 34.65 ± 1.03%
- Inhibition (%) of ABTS•+ (ABTS•+ assay; 3.33 μg/mL): 75.14 ± 1.08%

SMILES: O=C(O)c1ccc(O)c(O)c1 [Compound 2, protocatechuic acid]
- IC50 (ABTS•+ assay): 11.6 ± 0.22 µM
- Inhibition (%) of ABTS•+ (ABTS•+ assay; 0.33 μg/mL): 14.90 ± 0.34%
- Inhibition (%) of ABTS•+ (ABTS•+ assay; 1.67 μg/mL): 53.79 ± 0.92%
- Inhibition (%) of ABTS•+ (ABTS•+ assay; 3.33 μg/mL): 93.42 ± 0.58%

SMILES: O=C(O)C=Cc1ccc(O)cc1 [Compound 3, p-hydroxycinnamic acid]
- IC50 ([2]; read-out: rAR IC50): 8.35 ± 0.51 µM
- IC50 (ABTS•+ assay): 5.94 ± 1.01 µM
- Inhibition (%) of ABTS•+ (ABTS•+ assay; 1.67 μg/mL): 47.60 ± 1.35%
- Inhibition (%) of ABTS•+ (ABTS•+ assay; 3.33 μg/mL): 59.65 ± 1.39%
- Inhibition (%) of ABTS•+ (ABTS•+ assay; 8.33 μg/mL): 74.05 ± 0.69%

SMILES: O=C(/C=C/c1ccc(O)c(O)c1)O[C@H](Cc1ccc(O)c(O)c1)C(=O)O [Compound 4, rosmarinic acid]
- IC50 ([2]; rAR IC50): 2.77 ± 0.48 µM
- IC50 [3]: 18.6 ± 0.4 µM
- inhibition type of rhAR [4]: noncompetitive
- Galactitol content in rat lens (rat lenses): 532.38 ± 6.56 μg/lens wet weight (g)
- inhibition at 5 µg/mL (rat lenses): ~36.9%
- Rat erythrocyte galactitol content (rat erythrocyte): 15.05 ± 0.30 µM
- inhibition at 5 µg/mL (rat erythrocyte): ~35.5%
- Inhibition (%) of AGEs ([1]; 19.61 μg/mL): 20.67 ± 0.37%
- IC50 (ABTS•+ assay): 8.79 ± 0.1 µM
- Inhibition (%) of ABTS•+ (ABTS•+ assay; 0.33 μg/mL): 9.93 ± 0.27%
- Inhibition (%) of ABTS•+ (ABTS•+ assay; 1.67 μg/mL): 36.50 ± 0.78%
- Inhibition (%) of ABTS•+ (ABTS•+ assay; 3.33 μg/mL): 78.40 ± 1.17%

- IC50 ([2]; read-out: rAR IC50): 3.2 ± 0.55 µM
- IC50 [3]: 12.6 ± 0.32 µM
- inhibition type of rhAR [4]: noncompetitive inhibition
- inhibition type of rhAR ([4]; listed as caffeic acid ethylene ester (5)): noncompetitive
- IC50 [1]: 33.2 ± 0.54 µM
- IC50 (ABTS•+ assay): 10.5 ± 0.28 µM
SMILES: C=COC(=O)/C=C/c1ccc(O)c(O)c1 [Compound 5, caffeic acid ethylene ester]
- Galactitol content in rat lens (rat lenses): 653.76 ± 4.68 μg/lens wet weight (g)
- inhibition at 5 µg/mL (rat lenses): ~22.5%
- Rat erythrocyte galactitol content (rat erythrocyte): 15.89 ± 0.41 µM
- inhibition at 5 µg/mL (rat erythrocyte): ~31.7%
- Inhibition (%) of AGEs ([1]; 1.96 μg/mL): 9.00 ± 0.43%
- Inhibition (%) of AGEs ([1]; 4.9 μg/mL): 33.94 ± 0.94%
- Inhibition (%) of AGEs ([1]; 9.8 μg/mL): 74.81 ± 1.41%
- Inhibition (%) of ABTS•+ (ABTS•+ assay; 0.33 μg/mL): 13.00 ± 0.13%
- Inhibition (%) of ABTS•+ (ABTS•+ assay; 1.67 μg/mL): 50.17 ± 1.75%
- Inhibition (%) of ABTS•+ (ABTS•+ assay; 3.33 μg/mL): 84.68 ± 1.41%

- IC50 [1]: 304 ± 3.41 µM
- IC50 (ABTS•+ assay): 12.4 ± 0.33 µM
SMILES: O=Cc1ccc(O)c(O)c1 [Compound 6, protocatechualdehyde]
- Inhibition (%) of AGEs ([1]; 19.61 μg/mL): 9.85 ± 0.16%
- Inhibition (%) of AGEs ([1]; 49.02 μg/mL): 63.45 ± 1.16%
- Inhibition (%) of AGEs ([1]; 98.04 μg/mL): 88.69 ± 0.56%
- Inhibition (%) of ABTS•+ (ABTS•+ assay; 0.33 μg/mL): 13.73 ± 0.37%
- Inhibition (%) of ABTS•+ (ABTS•+ assay; 1.67 μg/mL): 52.73 ± 0.93%
- Inhibition (%) of ABTS•+ (ABTS•+ assay; 3.33 μg/mL): 92.80 ± 1.50%

SMILES: O=c1c(O)c(-c2ccc(O)c(O)c2)oc2cc(O)cc(O)c12 [Quercetin, quercetin, reference compound]
- inhibition at 1 µg/mL ([2]; 1 μg/mL): 44.7 ± 1.39%
- inhibition at 5 µg/mL ([2]; 5 μg/mL): 64.7 ± 1.56%
- inhibition at 10 µg/mL ([2]; 10 μg/mL): 75.33 ± 0.55%
- Galactitol content in rat lens (rat lenses): 448.81 ± 3.38 μg/lens wet weight (g)
- inhibition at 5 µg/mL (rat lenses): 46.8%
- Rat erythrocyte galactitol content (rat erythrocyte): 16.15 ± 0.39 µM
- inhibition at 5 µg/mL (rat erythrocyte): 30.5%

- ABTS•+ IC50 (ABTS•+ assay): 3.84 ± 0.10 µg/mL
- IC50 (ABTS•+ assay): 15.3 ± 0.4 µM
SMILES: Cc1c(C)c2c(c(C)c1O)CCC(C)(C(=O)O)O2 (stereo not shown) [Trolox, reference compound]
- Inhibition (%) of ABTS•+ (ABTS•+ assay; 1.67 μg/mL): 21.76 ± 1.15%
- Inhibition (%) of ABTS•+ (ABTS•+ assay; 3.33 μg/mL): 45.48 ± 1.20%
- Inhibition (%) of ABTS•+ (ABTS•+ assay; 16.67 μg/mL): 99.44 ± 0.20%
